Experimental data reported in paper PMC11845477, “Exploring the principles behind antibiotics with limited resistance” (Nature Communications, 2025).

System: P. aeruginosa ATCC BAA-3107 (SEN) and P. aeruginosa LESB58 (MDR)
Assay: Adaptive laboratory evolution (ALE), relative MIC of evolved lines
Type: cell-based, Pseudomonas aeruginosa
Excerpt: Using the same set of bacterial strains, we initiated adaptive laboratory evolution with the aim to maximize the level of antibiotic resistance in the populations achieved during a longer, but fixed time period.
An established protocol for adaptive laboratory evolution[46],[73] was followed to propagate populations with the highest resistance levels. Starting with an antibiotic concentration that caused approximately 50% growth inhibition, ten parallel populations for each antibiotic-ancestor strain combination were grown for 72 hours at 37 °C with continuous shaking (300 RPM). MHB broth medium was used unless stated otherwise. After each incubation, 20 µl of each culture was transferred to four new wells containing fresh medium with increasing antibiotic concentrations (0.5×, 1×, 1.5×, and 2.5× the previous concentration) in a chessboard layout to monitor potential cross-contamination. Growth was monitored by measuring OD600 using a Biotek Synergy 2 microplate reader, and only populations grown in the highest drug concentration with an OD600 > 0.2 were transferred further.
A robotic liquid handling system was used to automatically prepare a 11 to 16-step serial dilution in 384-well microtiter plates (Greiner). A final concentration of 5 × 10^5 bacterial cells per mL were inoculated into each well containing 60 µL MHB medium. Bacterial cultures were incubated at 37 °C with continuous shaking (Infors shaker, 900 rpm with 3 mm throw) for 18 hours (2 replicates from each). Cell growth was monitored by measuring the optical density (OD600 values, using Biotek Synergy microplate reader). MIC was defined as the antibiotic concentration of complete growth inhibition (i.e., OD600 < 0.05). Relative MIC was calculated as follows:1 relativeMIC=MICevolved/MICancestor […]
Supplementary Figure 4. Resistance levels following adaptive laboratory evolution across bacterial strains. The level of resistance was measured as the fold change in relative MIC between evolved and ancestral strains after ~60 days of adaptive laboratory evolution. Data are grouped by bacterial strain (A. baumannii (AB), E. coli (EC), K. pneumoniae (KP), and P. aeruginosa (PA)) and categorized as either multidrug-resistant (MDR) or sensitive (SEN). Each data point represents a laboratory evolved line, and boxplots show the median, first and third quartiles, with whiskers indicating the 5th and 95th percentiles.
Statistical analysis was performed using two-sided Dunn’s post-hoc test with Benjamini-Hochberg correction for multiple comparisons (****/ ***/ **/ * indicates p < 0.0001/ 0.001/ 0.01/ 0.05). For detailed information on antibiotic and bacterial species, see Supplementary Table 1. For mode of action groups, refer to Table 1. Source data are provided as a Source Data file.

[1] = PA-SEN (Pseudomonas aeruginosa ATCC BAA 3107), evolved line 2 adapted to the named antibiotic
[2] = PA-SEN (Pseudomonas aeruginosa ATCC BAA 3107), evolved line 4 adapted to the named antibiotic
[3] = PA-SEN (Pseudomonas aeruginosa ATCC BAA 3107), evolved line 10 adapted to the named antibiotic
[4] = PA-SEN, Pseudomonas aeruginosa ATCC BAA 3107, evolved line 1
[5] = PA-SEN, Pseudomonas aeruginosa ATCC BAA 3107, evolved line 1 versus ancestor
[6] = PA-SEN, Pseudomonas aeruginosa ATCC BAA 3107, evolved line 2
[7] = PA-SEN, Pseudomonas aeruginosa ATCC BAA 3107, evolved line 2 versus ancestor
[8] = PA-SEN, Pseudomonas aeruginosa ATCC BAA 3107, evolved line 3
[9] = PA-SEN, Pseudomonas aeruginosa ATCC BAA 3107, evolved line 3 versus ancestor
[10] = PA-SEN, Pseudomonas aeruginosa ATCC BAA 3107, evolved line 4
[11] = PA-SEN, Pseudomonas aeruginosa ATCC BAA 3107, evolved line 4 versus ancestor
[12] = PA-SEN, Pseudomonas aeruginosa ATCC BAA 3107, evolved line 5
[13] = PA-SEN, Pseudomonas aeruginosa ATCC BAA 3107, evolved line 5 versus ancestor
[14] = PA-SEN, Pseudomonas aeruginosa ATCC BAA 3107, evolved line 6
[15] = PA-SEN, Pseudomonas aeruginosa ATCC BAA 3107, evolved line 6 versus ancestor
[16] = PA-SEN, Pseudomonas aeruginosa ATCC BAA 3107, evolved line 7
[17] = PA-SEN, Pseudomonas aeruginosa ATCC BAA 3107, evolved line 7 versus ancestor
[18] = PA-SEN, Pseudomonas aeruginosa ATCC BAA 3107, evolved line 8
[19] = PA-SEN, Pseudomonas aeruginosa ATCC BAA 3107, evolved line 8 versus ancestor
[20] = PA-SEN, Pseudomonas aeruginosa ATCC BAA 3107, evolved line 9
[21] = PA-SEN, Pseudomonas aeruginosa ATCC BAA 3107, evolved line 9 versus ancestor
[22] = PA-SEN, Pseudomonas aeruginosa ATCC BAA 3107, evolved line 10
[23] = PA-SEN, Pseudomonas aeruginosa ATCC BAA 3107, evolved line 10 versus ancestor
[24] = PA-SEN (Pseudomonas aeruginosa ATCC BAA 3107), evolved line 1 adapted to the named antibiotic
[25] = PA-SEN (Pseudomonas aeruginosa ATCC BAA 3107), evolved line 6 adapted to the named antibiotic
[26] = PA-SEN (Pseudomonas aeruginosa ATCC BAA 3107), evolved line 9 adapted to the named antibiotic
[27] = PA-MDR (Pseudomonas aeruginosa LESB 58), evolved line 1
[28] = PA-MDR (Pseudomonas aeruginosa LESB 58), evolved line 6
[29] = PA-MDR, Pseudomonas aeruginosa LESB 58, evolved line 9
[30] = PA-MDR, Pseudomonas aeruginosa LESB 58, evolved line 10
[31] = PA-MDR, Pseudomonas aeruginosa LESB 58, evolved line 2
[32] = PA-MDR, Pseudomonas aeruginosa LESB 58, evolved line 3
[33] = PA-MDR, Pseudomonas aeruginosa LESB 58, evolved line 4
[34] = PA-MDR, Pseudomonas aeruginosa LESB 58, evolved line 5
[35] = PA-MDR, Pseudomonas aeruginosa LESB 58, evolved line 7
[36] = PA-MDR, Pseudomonas aeruginosa LESB 58, evolved line 8

## CN(C)[C@@H]1C(O)=C(C(N)=O)C(=O)[C@@]2(O)C(O)=C3C(=O)c4c(O)c(NC(=O)CN5CCCC5)cc(F)c4C[C@H]3C[C@@H]12 [Eravacycline]
[1]
  Relative MIC (log10): 1.505
[2]
  Relative MIC (log10): 1.505
PA-SEN (Pseudomonas aeruginosa ATCC BAA 3107), evolved line 5 adapted to the named antibiotic
  Relative MIC (log10): 1.806
PA-SEN (Pseudomonas aeruginosa ATCC BAA 3107), evolved line 7 adapted to the named antibiotic
  Relative MIC (log10): 1.204
[3]
  Relative MIC (log10): 1.505
[4]
  MIC of evolved line: 128 µg/mL
[5]
  Relative MIC: 32
[6]
  MIC of evolved line: 128 µg/mL
[7]
  Relative MIC: 32
[8]
  MIC of evolved line: 256 µg/mL
[9]
  Relative MIC: 64
[10]
  MIC of evolved line: 128 µg/mL
[11]
  Relative MIC: 32
[12]
  MIC of evolved line: 256 µg/mL
[13]
  Relative MIC: 64
[14]
  MIC of evolved line: 128 µg/mL
[15]
  Relative MIC: 32
[16]
  MIC of evolved line: 64 µg/mL
[17]
  Relative MIC: 16
[18]
  MIC of evolved line: 64 µg/mL
[19]
  Relative MIC: 16
[20]
  MIC of evolved line: 64 µg/mL
[21]
  Relative MIC: 16
[22]
  MIC of evolved line: 128 µg/mL
[23]
  Relative MIC: 32
Pseudomonas aeruginosa ATCC BAA 3107 (PA-SEN), evolved line 1
  Relative MIC: 32
Pseudomonas aeruginosa ATCC BAA 3107 (PA-SEN), evolved line 2
  Relative MIC: 32
Pseudomonas aeruginosa ATCC BAA 3107 (PA-SEN), evolved line 3
  Relative MIC: 64
Pseudomonas aeruginosa ATCC BAA 3107 (PA-SEN), evolved line 4
  Relative MIC: 32
Pseudomonas aeruginosa ATCC BAA 3107 (PA-SEN), evolved line 5
  Relative MIC: 64
Pseudomonas aeruginosa ATCC BAA 3107 (PA-SEN), evolved line 6
  Relative MIC: 32
Pseudomonas aeruginosa ATCC BAA 3107 (PA-SEN), evolved line 7
  Relative MIC: 16
Pseudomonas aeruginosa ATCC BAA 3107 (PA-SEN), evolved line 8
  Relative MIC: 16
Pseudomonas aeruginosa ATCC BAA 3107 (PA-SEN), evolved line 9
  Relative MIC: 16
Pseudomonas aeruginosa ATCC BAA 3107 (PA-SEN), evolved line 10
  Relative MIC: 32

## CNC(C)C1CCC(N)C(OC2C(N)CC(N)C(OC3OCC(C)(O)C(NC)C3O)C2O)O1 (stereo not shown) [Gentamicin]
[24]
  Relative MIC (log10): 2.107
[1]
  Relative MIC (log10): 1.806
[25]
  Relative MIC (log10): 1.806
[26]
  Relative MIC (log10): 2.107
[3]
  Relative MIC (log10): 2.408
[4]
  MIC of evolved line: 128 µg/mL
  Relative MIC: 128
[5]
  Relative MIC: 128
[6]
  MIC of evolved line: 64 µg/mL
  Relative MIC: 64
[7]
  Relative MIC: 64
[10]
  MIC of evolved line: 128 µg/mL
  Relative MIC: 128
[11]
  Relative MIC: 128
[14]
  MIC of evolved line: 64 µg/mL
  Relative MIC: 64
[15]
  Relative MIC: 64
[18]
  MIC of evolved line: 256 µg/mL
  Relative MIC: 256
[19]
  Relative MIC: 256
[20]
  MIC of evolved line: 128 µg/mL
  Relative MIC: 128
[21]
  Relative MIC: 128
[22]
  MIC of evolved line: 256 µg/mL
  Relative MIC: 256
[23]
  Relative MIC: 256

## O=c1ccc2ncc(=O)n3c2n1C[C@H]3CN1CCC(NCc2cc3c(cn2)OCCC3)CC1 [Gepotidacin]
[27]
  MIC of evolved line: 128 µg/mL
  Relative MIC: 32
PA-MDR (Pseudomonas aeruginosa LESB 58), evolved line 1 adapted to the named antibiotic
  Relative MIC (log10): 1.505
PA-MDR (Pseudomonas aeruginosa LESB 58), evolved line 2 adapted to the named antibiotic
  Relative MIC (log10): 1.505
PA-MDR (Pseudomonas aeruginosa LESB 58), evolved line 5 adapted to the named antibiotic
  Relative MIC (log10): 1.505
[28]
  MIC of evolved line: 128 µg/mL
  Relative MIC: 32
PA-MDR (Pseudomonas aeruginosa LESB 58), evolved line 7 adapted to the named antibiotic
  Relative MIC (log10): 1.505
PA-MDR (Pseudomonas aeruginosa LESB 58), evolved line 8 adapted to the named antibiotic
  Relative MIC (log10): 1.505
PA-MDR, Pseudomonas aeruginosa LESB 58, evolved line 1 versus ancestor
  Relative MIC: 32
PA-MDR, Pseudomonas aeruginosa LESB 58, evolved line 2 versus ancestor
  Relative MIC: 32
PA-MDR, Pseudomonas aeruginosa LESB 58, evolved line 3 versus ancestor
  Relative MIC: 32
PA-MDR, Pseudomonas aeruginosa LESB 58, evolved line 4 versus ancestor
  Relative MIC: 32
PA-MDR, Pseudomonas aeruginosa LESB 58, evolved line 5 versus ancestor
  Relative MIC: 32
PA-MDR, Pseudomonas aeruginosa LESB 58, evolved line 6 versus ancestor
  Relative MIC: 32
PA-MDR, Pseudomonas aeruginosa LESB 58, evolved line 7 versus ancestor
  Relative MIC: 32
PA-MDR, Pseudomonas aeruginosa LESB 58, evolved line 8 versus ancestor
  Relative MIC: 32
[29]
  MIC of evolved line: 64 µg/mL
  Relative MIC: 16
PA-MDR, Pseudomonas aeruginosa LESB 58, evolved line 9 versus ancestor
  Relative MIC: 16
[30]
  MIC of evolved line: 128 µg/mL
  Relative MIC: 32
PA-MDR, Pseudomonas aeruginosa LESB 58, evolved line 10 versus ancestor
  Relative MIC: 32
[31]
  MIC of evolved line: 128 µg/mL
  Relative MIC: 32
[32]
  MIC of evolved line: 128 µg/mL
  Relative MIC: 32
[33]
  MIC of evolved line: 128 µg/mL
  Relative MIC: 32
[34]
  MIC of evolved line: 128 µg/mL
  Relative MIC: 32
[35]
  MIC of evolved line: 128 µg/mL
  Relative MIC: 32
[36]
  MIC of evolved line: 128 µg/mL
  Relative MIC: 32
[24]
  Relative MIC (log10): 1.806
[2]
  Relative MIC (log10): 1.806
[25]
  Relative MIC (log10): 1.806
[26]
  Relative MIC (log10): 1.806
[3]
  Relative MIC (log10): 1.806
[4]
  MIC of evolved line: 256 µg/mL
  Relative MIC: 64
[5]
  Relative MIC: 64
[6]
  MIC of evolved line: 256 µg/mL
  Relative MIC: 64
[7]
  Relative MIC: 64
[8]
  MIC of evolved line: 128 µg/mL
  Relative MIC: 32
[9]
  Relative MIC: 32
[10]
  MIC of evolved line: 256 µg/mL
  Relative MIC: 64
[11]
  Relative MIC: 64
[12]
  MIC of evolved line: 128 µg/mL
  Relative MIC: 32
[13]
  Relative MIC: 32
[14]
  MIC of evolved line: 256 µg/mL
  Relative MIC: 64
[15]
  Relative MIC: 64
[16]
  MIC of evolved line: 256 µg/mL
  Relative MIC: 64
[17]
  Relative MIC: 64
[18]
  MIC of evolved line: 128 µg/mL
  Relative MIC: 32
[19]
  Relative MIC: 32
[20]
  MIC of evolved line: 256 µg/mL
  Relative MIC: 64
[21]
  Relative MIC: 64
[22]
  MIC of evolved line: 256 µg/mL
  Relative MIC: 64
[23]
  Relative MIC: 64

## C[C@@H](O)[C@H]1C(=O)N2C(C(=O)O)=C(S[C@@H]3CN[C@H](C(=O)N(C)C)C3)[C@H](C)[C@H]12 [Meropenem]
[29]
  MIC of evolved line: 256 µg/mL
[30]
  MIC of evolved line: 32 µg/mL
[4]
  MIC of evolved line: 16 µg/mL
[6]
  MIC of evolved line: 64 µg/mL
[10]
  MIC of evolved line: 64 µg/mL
[14]
  MIC of evolved line: 64 µg/mL
[18]
  MIC of evolved line: 32 µg/mL
[22]
  MIC of evolved line: 64 µg/mL
